Experiments:
Assay type in all cases: cell-based
[1] = test system: MDA-MB-453 cells; assay: Cytotoxicity (cell viability, CellTiter-Glo, 6 d); conditions: Homo sapiens, MDA-MB-453
Experimental: (§1) Dose-matrix combination assays were performed as described above, but performed in opague 384-well plates (2k viable cells/well). Compounds were added using Tecan D300e liquid. Protein solutions were supplemented with 0.3% Tween-20 (final) and diluted to 1 μM. All wells were normalized to the maximum amount of DMSO (maximum 0.4%) or Tween-20 added. […] Luminescence values were normalized to luminescence of non-treated cells and dose-response was fitted using Smart Fit. Synergy scores were calculated using LOEWE synergy model.

[2] = test system: NCI-N87 cells; assay: Cytotoxicity (cell viability, CellTiter-Glo, 6 d); conditions: Homo sapiens; NCI-N87, agent alone, 384-well format (footnote a)
Experimental: as §1

[3] = test system: MDA-MB-453 cells; assay: Dose-matrix combination assay (synergy score, Loewe model); conditions: combination with AZD6738; MDA-MB-453
Experimental: (§2) Dose-matrix combination assays were performed as described above, but performed in opague 384-well plates (2k viable cells/well). Compounds were added using Tecan D300e liquid. Protein solutions were supplemented with 0.3% Tween-20 (final) and diluted to 1 μM. All wells were normalized to the maximum amount of DMSO (maximum 0.4%) or Tween-20 added. Read out of luminescence was performed on Envision 2104 Multilabel Reader (Perkin Elmer) and data were evaluated using Genedata Screener® version 14.0.6-Standard (Genedata AG). Luminescence values were normalized to luminescence of non-treated cells and dose-response was fitted using Smart Fit. Synergy scores were calculated using LOEWE synergy model.
(§3) The screening of synergistic drug combinations can be accomplished by performing a dose-matrix assay. Therefore, two drugs are serial diluted and mixed at every dose level, yielding a dose-matrix. The drug combination can be additive if the effects of the combination are identical to the added effects of the single agents. However, the effects of the combination might also be stronger than the activity of the single agents. This scenario is termed synergy, whereas weaker combination effects compared to the single agents are termed antagonism. A dose-matrix assay is depicted schematically in FIG. 2 which illustrates the outcomes of a dose-matrix assay: additivity, antagonism and synergy.

[4] = test system: NCI-N87 cells; assay: as above; conditions: combination with AZD6738; NCI-N87
Experimental: as §2, §3

[5] = test system: HCC-1954 cells; assay: as above; conditions: combination with AZD6738, HCC-1954, 6 d
Experimental: as §1, §3
The screening was conducted by serial diluting the duocarmycin derivative DUBA (10) and the DDR inhibitors. […] DUBA was combined in a dose-matrix assay with hycanthone. The cell viability was measured after 6 d of treatment using the CellTiter-Glo assay kit. The signals of the cell viability assay were normalized to untreated cells and fitted. […] By subtracting the modeled data from the fitted data, an excess matrix was generated. The excess matrix can be considered as a visualization of the differences between model and actual data which also highlights spots of either high synergy or antagonism. The quantification of the combination effects, however, was performed by calculating synergy scores. […] Besides synergy score, the potency of the drugs in monotherapy was obtained from these experiments. […] The potency was obtained from this dose-response curve.
The scattering of S was determined in a sham control experiment to define a cutoff for classifying a combination as truly synergistic or antagonistic. Thus seven different compounds were combined with itself on four different cell lines and the three-σ confidence interval was calculated around the mean of the measurement. […] For the sake of convenience, the cutoff was set to a value of ±1.
Synergy scores (S) were obtained from the combination experiments that indicated additivity […] if model and actual response were equal. […] The magnitude of the score determined the extent of the combination effects.

[6] = test system: HCC-1954 cells treated with ATR, CHK1 or non-targeting siRNA; assay: Cytotoxicity of duocarmycins on siRNA knock-down cells; conditions: Homo sapiens, HCC1954, 144 h, ATR knock-down HCC-1954 cells, 6 d
Experimental: 0.7*10^6 viable cells were seeded in a T25 flask, 5 mL of medium were added and the cells were incubated at 37° C. and 5% C02 overnight. The transfection was carried out as follows: 2.5 μL Lipofectamine RNAiMAX were diluted with 247.5 μL OptiMEM and a 0.3 μM siRNA (ATR, CHK1 or non-targeting siRNA) solution was prepared in OptiMEM to yield 250 μL final volume. The solutions were mixed and incubated for 20 min at room temperature, followed by the addition of 500 μL cell culture medium. The cell culture medium was removed from the cells, washed with PBS (3×) and the transfection mix was added to the cells. After 4 h incubation at 37° C. and 5% CO2, the transfection mix was removed in vacuo. The cells were washed with medium (3×), 5 mL medium were added and the cells were incubated for 60 h at 37° C. and 5% CO2. Then cells were detached, and seeded into 384-well plates. Then a cytotoxicity assay was performed as described before, but with one compound only
Therefore, HCC-1954 cells were seeded into T25 flasks and left to adhere overnight. Then the cells were washed with PBS, and subsequently ATR, CHK1 and non-targeting siRNA were added. The cells were incubated for 4 h, washed with medium and incubated for 3 d. Cells were detached and seeded into 384-well plates. They were treated with duocarmycins for 6 d. Cell viability was determined via CellTiter-Glo assay kit, and data were evaluated using GraphPad Prism. The knock-down efficiency was evaluated using quantitative PCR.

[7] = test system: MDA-MB-468 cells; assay: Cytotoxicity (cell viability, CellTiter-Glo, 6 d); conditions: Homo sapiens, MDA-MB-468
[8] = test system: HCC-1954 cells; assay: Cytotoxicity (cell viability, CellTiter-Glo, 6 d); conditions: Homo sapiens
Experimental: as §1
After 6 d of treatment, CellTiter-Glo luminescent assay was performed and the luminescence was read on Envision Reader. The results were analyzed using GeneData Screener as described before.

[9] = test system: JIMT-1 cells; assay: Cytotoxicity (cell viability, CellTiter-Glo, 6 d); conditions: Homo sapiens; JIMT-1, agent alone, 384-well format (footnote a)
Experimental: Evaluation was performed using GraphPad Prism version 6.05.
as §2

## Cc1cccc2c(O)cc3c(c12)[C@H](CCl)CN3C(=O)c1cn2cc(NC(=O)c3ccc(O)cc3)ccc2n1 [compound 10]
[1]
  IC50: 0.3 ± 0.1 nM
[2]
  IC50: 1.2 ± 0.5 nM
[3]
  Synergy score S: 5.0±0.5
[4]
  Synergy score S: 3.1+0.6
[5]
  Synergy score S: 6.7 (6.3, 7.2) 6.9 ± 0.7
[5]; listed as DUBA
  Synergy score S: 6.9±0.7
[5]; listed as DUBA (10)
  Synergy score S: 6.9±0.7
[6]
  IC50: 0.25 nM
[7]
  IC50: 0.06 ± 0.02 nM
[8]; HCC1954, HCC-1954, agent alone, 384-well format (footnote a)
  IC50: 0.3 ± 0.07 nM
[8]; HCC1954, duocarmycin variant alone, HCC-1954, mean ± SD or mean (individual values)
  IC50: 0.2 ± 0.1 nM
[9]
  IC50: 3 ± 2 nM

From patent US12616750B2, “Combination therapy utilizing DNA alkylating agents and ATR inhibitors” (Merck Patent GmbH, priority 2018, dated 2026)
